According to PubChem BioAssay (NCI):
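These data come from cells grown in 96-well plates and exposed to compound for 48 hours at five concentrations. The concentration for 50% growth inhibition is given as GI50. TGI is the concentration that stops growth completely.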

Tests used:
Assay in all cases: NCI anticancer screen, dose series, 48 h
UACC-257 melanoma = tested on: UACC-257 melanoma
MALME-3M melanoma = tested on: MALME-3M melanoma
SNB-75 CNS = tested on: SNB-75 CNS
SF-295 CNS = tested on: SF-295 CNS
SK-OV-3 ovarian = tested on: SK-OV-3 ovarian
OVCAR-4 ovarian = tested on: OVCAR-4 ovarian
LOX IMVI melanoma = tested on: LOX IMVI melanoma
SN12C renal = tested on: SN12C renal
OVCAR-8 ovarian = tested on: OVCAR-8 ovarian
HT29 colon = tested on: HT29 colon
SK-MEL-2 melanoma = tested on: SK-MEL-2 melanoma
OVCAR-3 ovarian = tested on: OVCAR-3 ovarian
EKVX NSCLC = tested on: EKVX NSCLC
MCF7 breast = tested on: MCF7 breast
SR leukemia = tested on: SR leukemia
RPMI-8226 leukemia = tested on: RPMI-8226 leukemia
BT-549 breast = tested on: BT-549 breast
T-47D breast = tested on: T-47D breast

Row | SMILES | TGI (UACC-257 melanoma) [µM] | TGI (MALME-3M melanoma) [µM] | TGI (SNB-75 CNS) [µM] | TGI (SF-295 CNS) [µM] | TGI (SK-OV-3 ovarian) [µM] | TGI (OVCAR-4 ovarian) [µM] | TGI (LOX IMVI melanoma) [µM] | TGI (SN12C renal) [µM] | TGI (OVCAR-8 ovarian) [µM] | TGI (HT29 colon) [µM] | TGI (SK-MEL-2 melanoma) [µM] | TGI (OVCAR-3 ovarian) [µM] | TGI (EKVX NSCLC) [µM] | TGI (MCF7 breast) [µM] | TGI (SR leukemia) [µM] | TGI (RPMI-8226 leukemia) [µM] | TGI (BT-549 breast) [µM] | GI50 (OVCAR-4 ovarian) [µM] | TGI (T-47D breast) [µM]
1 | CCOC(=O)C1SC(=Nc2ccc(OC)c(OC)c2)N=C1C (stereo not drawn) | > 100 | 83.4 | 71.1 | > 100 | > 100 | > 100 | > 100 | > 100 | > 100 | 34.8 | > 100 | 86.7 | > 100 | – | – | – | – | – | –
2 | CN(CC(=O)O)c1ncc2c(n1)C=CCC2 | > 100 | > 100 | > 100 | > 100 | > 100 | > 100 | > 100 | > 100 | > 100 | > 100 | > 100 | > 100 | > 100 | > 100 | > 100 | > 100 | – | – | –
3 | C=CCNC(=S)N1CC(C)C(=O)Nc2cc(Cl)ccc21 (stereo not drawn) | > 100 | > 100 | > 100 | > 100 | > 100 | > 100 | – | > 100 | > 100 | > 100 | > 100 | – | > 100 | – | > 100 | > 100 | – | – | –
4 | Nc1ccc2[nH]c(-c3cccc(C(F)(F)F)c3)cc(=O)c2c1 | > 100 | > 100 | 96.9 | – | > 100 | > 100 | > 100 | > 100 | > 100 | > 100 | – | – | > 100 | > 100 | 97.8 | > 100 | > 100 | 62.9 | –
5 | COC(=O)c1c(C(=O)OC)c2ccccn2c1-c1cc(OC)c(Br)c(=O)o1 | > 100 | > 100 | 66.3 | > 100 | > 100 | > 100 | > 100 | > 100 | > 100 | > 100 | > 100 | > 100 | > 100 | – | > 100 | > 100 | – | – | > 100
6 | O=C(Nc1ccc(Cl)cc1C(F)(F)F)C(=O)C1CCCS1(=O)=O (stereo not drawn) | > 100 | > 100 | > 100 | > 100 | – | > 100 | > 100 | > 100 | > 100 | > 100 | – | > 100 | > 100 | – | > 100 | > 100 | – | – | –
7 | C[C@]12CCC(=O)C(OC(=O)c3ccc([N+](=O)[O-])cc3)=C1CCC2=O | > 100 | > 100 | > 100 | > 100 | > 100 | > 100 | > 100 | > 100 | > 100 | > 100 | – | > 100 | > 100 | – | > 100 | > 100 | – | – | –
8 | COc1ccc(OC)c(NCC(=O)Nn2cnc3ccc(S(=O)(=O)Nc4cc(OC)ccc4OC)cc3c2=O)c1 | > 100 | > 100 | > 100 | > 100 | > 100 | > 100 | > 100 | > 100 | > 100 | > 100 | > 100 | > 100 | > 100 | > 100 | > 100 | – | > 100 | – | –
9 | CC12C3C4C1C1C2C3C41CO (stereo not drawn) | > 100 | – | > 100 | > 100 | > 100 | > 100 | > 100 | > 100 | > 100 | > 100 | > 100 | > 100 | > 100 | > 100 | > 100 | – | – | – | –
10 | Cc1cc(S(=O)(=O)N2CCNNC2=O)c(S)cc1Cl | > 100 | 46.2 | > 100 | > 100 | – | > 100 | > 100 | > 100 | > 100 | – | > 100 | > 100 | > 100 | > 100 | > 100 | > 100 | 64.2 | – | –
11 | O=C(O)/C(Cl)=C(\Cl)C(=O)c1ccccc1 | > 100 | > 100 | > 100 | > 100 | > 100 | > 100 | > 100 | > 100 | > 100 | > 100 | > 100 | > 100 | > 100 | – | > 100 | – | – | – | –
12 | CC(C)C(=O)N1Cc2cc(Cl)cc(Cl)c2OC(=O)c2ccccc21 | 32.8 | 49.3 | 96.5 | > 100 | 84.5 | 74 | 59 | > 100 | > 100 | > 100 | 50 | 60.8 | 67.2 | – | – | 96.8 | – | – | –
13 | N#CC(/C(CCC(=O)Nc1ccc(Cl)cc1)=N/NC(=O)c1cc2ccccc2cc1O)c1ccccc1 (stereo not drawn) | > 100 | > 100 | > 100 | > 100 | – | > 100 | 73.1 | > 100 | > 100 | > 100 | 61.2 | > 100 | > 100 | – | – | > 100 | – | – | –
14 | O=P1(c2ccccc2)c2ccccc2-c2ccccc21 | > 100 | – | > 100 | > 100 | > 100 | – | > 100 | > 100 | > 100 | – | > 100 | > 100 | > 100 | > 100 | – | > 100 | > 100 | – | –
15 | O=C(/C=C\c1cccc2ccccc12)c1ccc(F)cc1 | 34.7 | 32.1 | 75.3 | 41.1 | 58.3 | 36.9 | – | 32.3 | 28.4 | 36.6 | – | 30.9 | 35.2 | – | – | – | – | – | –
16 | COc1ccc(/C(=N\NC(=O)NN)C(c2ccc(OC)cc2)C2(O)C(=O)Nc3c(Cl)cc(Cl)cc32)cc1 (stereo not drawn) | > 100 | > 100 | > 100 | > 100 | – | > 100 | > 100 | > 100 | > 100 | > 100 | > 100 | > 100 | > 100 | – | – | > 100 | – | – | –
